Results taken from patent US10000473B2, “Indazole derivatives useful as glucagon receptor antagonists” (Janssen Pharmaceutica NV, priority 2016, dated 2018).
Where “and” joins values, the source holds several entries; their conditions need not be identical. Equal values may be shown once.

Target: T1, human GCGR (Homo sapiens, UniProt P47871)
T1 construct: expressed in transfected cells; host or cells: HEK293 (hGluc-1HEK), pcDNA3.1, G418 selection
Assay: Cellular functional assay, cAMP readout (glucagon-stimulated cAMP, LANCE TR-FRET)
Type: cell-based
Settings: HEK293 cells stably expressing full-length human GCGR; glucagon 100 pM; IC50 converted to Ki; read-out: Inhibition of cAMP Ki

T1 sequence (P47871 26-477): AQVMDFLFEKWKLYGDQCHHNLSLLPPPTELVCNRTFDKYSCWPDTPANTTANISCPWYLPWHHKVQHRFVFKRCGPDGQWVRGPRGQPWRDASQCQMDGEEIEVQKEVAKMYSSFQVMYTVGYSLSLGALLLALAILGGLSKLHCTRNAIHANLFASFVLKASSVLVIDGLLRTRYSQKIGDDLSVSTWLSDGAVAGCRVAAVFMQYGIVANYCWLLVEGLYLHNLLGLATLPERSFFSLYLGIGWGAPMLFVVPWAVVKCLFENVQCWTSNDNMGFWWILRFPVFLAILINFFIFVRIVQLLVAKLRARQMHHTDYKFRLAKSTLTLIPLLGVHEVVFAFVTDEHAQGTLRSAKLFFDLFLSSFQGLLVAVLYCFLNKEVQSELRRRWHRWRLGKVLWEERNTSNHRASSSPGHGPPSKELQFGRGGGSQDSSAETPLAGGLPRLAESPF

Structure (SMILES)	Ki
CC(C)CCC(c1ccc(C(=O)NCCC(=O)O)cc1)n1cc2cc(-c3ccc(C(F)(F)F)cc3)ccc2n1 (stereo not drawn) [compound 27]	105 nM
Cc1cc(Cl)ccc1-c1ccc2c(cnn2C(CCC(F)(F)F)c2ccc(C(=O)NCCC(=O)O)cc2)c1 (stereo not drawn) [Compound #40, 3-[[4-[1-[5-(4-Chloro-2-methyl-phenyl)indazol-1-yl]-4,4,4-trifluorobutyl]benzoyl]amino]propanoic acid]	490 nM
Cc1c(-c2ccc(C(C)(C)C)cc2)ccc2nn(C(CC(C)C)c3ccc(C(=O)NCCC(=O)O)cc3)cc12 (stereo not drawn) [Compound #78, 3-(4-(1-(5-(4-(tert-Butyl)phenyl)-4-methyl-2H-indazol-2-yl)-3-methylbutyl)benzamido)propanoic acid]	35 nM
CCCC(c1ccc(C(=O)NCCC(=O)O)cc1)n1cc2cc(-c3ccc(C(F)(F)F)cc3)ccc2n1 (stereo not drawn) [compound 91]	125 nM
CC(C)CC(c1ccc(C(=O)NCCC(=O)O)cc1)n1cc2cc(-c3cnc4ccccc4c3)ccc2n1 (stereo not drawn) [compound 117]	1000 nM
O=C(O)CCNC(=O)c1ccc(C(C2CCCCC2)n2cc3cc(-c4ccc(C(F)(F)F)cc4Cl)ccc3n2)cc1 (stereo not drawn) [compound 98]	83 nM
O=C(O)CCNC(=O)c1ccc(C(CCC(F)(F)C(F)(F)F)n2ncc3cc(-c4ccc(C(F)(F)F)cc4)ccc32)cc1 (stereo not drawn) [compound 100]	550 nM
O=C(O)CCNC(=O)c1ccc(C(c2ccc(C(F)(F)F)cc2)n2ncc3cc(-c4ccc(C(F)(F)F)cc4)ccc32)cc1 (stereo not drawn) [Compound #101, 3-(4-((4-(Trifluoromethyl)phenyl)(5-(4-(trifluoromethyl)phenyl)-1H-indazol-1-yl)methyl)benzamido)propanoic acid]	800 nM
CC(C)CC(c1ccc(C(=O)NCCC(=O)O)cc1)n1ncc2cc(-c3cccnc3)ccc21 (stereo not drawn) [compound 219]	> 5200 nM
CC(C)CCn1cc(-c2ccc3nn(C(CC(C)C)c4ccc(C(=O)NCCC(=O)O)cc4)cc3c2)cn1 (stereo not drawn) [Compound #17]	> 5200 nM
CC(C)CCC(c1ccc(C(=O)NCCC(=O)O)cc1)n1ncc2cc(-c3ccc(C(C)(C)C)cc3)ccc21 (stereo not drawn) [Compound #23, 3-(4-(1-(5-(4-(tert-Butyl)phenyl)-1H-indazol-1-yl)-4-methylpentyl)benzamido)propanoic acid]	144 nM
CC(C)(C)CC(c1ccc(C(=O)NCCC(=O)O)cc1)n1ncc2cc(-c3ccc(C(F)(F)F)cc3)ccc21 (stereo not drawn) [compound 231]	95 nM
O=C(O)CCNC(=O)c1ccc(C(CCC(F)(F)F)n2ncc3cc(-c4ccc(F)cc4Cl)ccc32)cc1 (stereo not drawn) [Compound #223, 3-(4-(1-(5-(2-Chloro-4-fluorophenyl)-1H-indazol-1-yl)-4,4,4-trifluorobutyl)benzamido)propanoic acid]	950 nM
O=C(O)CCNC(=O)c1ccc(C(CC2CCCCC2)n2cc3cc(-c4ccc(C(F)(F)F)cc4)ccc3n2)cc1 (stereo not drawn) [compound 92]	63 nM
COc1ccc2cc(-c3ccc4nn(C(CC(C)C)c5ccc(C(=O)NCCC(=O)O)cc5)cc4c3)ccc2c1 (stereo not drawn) [compound 82]	> 1300 nM
CC(C)(C)CC(c1ccc(C(=O)NCCC(=O)O)cc1)n1cc2cc(-c3ccc(C(F)(F)F)cc3)ccc2n1 (stereo not drawn) [compound 61]	52 nM
O=C(O)CCNC(=O)c1ccc(C(CCC(F)(F)F)n2cc3cc(-c4cc5ccccc5s4)ccc3n2)cc1 (stereo not drawn) [Compound #122, 3-[[4-[1-[5-(Benzothiophen-2-yl)indazol-2-yl]-4,4,4-trifluorobutyl]benzoyl]amino]propanoic acid]	125 nM
O=C(O)CCNC(=O)c1ccc(C(CCC(F)(F)F)n2ncc3cc(-c4ccc(C(F)(F)F)cc4Cl)ccc32)cc1 (stereo not drawn) [Compound #167, 3-[[4-[1-[5-[2-Chloro-4-(trifluoromethyl)phenyl]indazol-1-yl]-4,4,4-trifluorobutyl]benzoyl]amino]propanoic acid]	270 nM
CC(C)CCn1cc(-c2ccc3c(cnn3C(CC(C)C)c3ccc(C(=O)NCCC(=O)O)cc3)c2)cn1 (stereo not drawn) [compound 123]	> 5200 nM
CC(C)(C)c1ccc(-c2ccc3nn(C(CC4CCCCC4)c4ccc(C(=O)NCCC(=O)O)cc4)cc3c2)cc1 (stereo not drawn) [Compound #228, 3-(4-(1-(5-(4-(tert-Butyl)phenyl)-2H-indazol-2-yl)-2-cyclohexylethyl)benzamido)propanoic acid]	130 nM

The next lines start with the values.

Ki	Structure (SMILES)
175 nM	CC(C)CC(c1ccc(C(=O)NCCC(=O)O)nc1)n1ncc2cc(-c3ccc(C(F)(F)F)cc3Cl)ccc21 (stereo not drawn) [Compound #43, 3-(5-(1-(5-(2-Chloro-4-(trifluoromethyl)phenyl)-1H-indazol-1-yl)-3-methylbutyl)picolinamido)propanoic acid]
92 nM	Cc1cc(C(F)(F)F)ccc1-c1ccc2c(cnn2C(CC(C)C)c2ccc(C(=O)NCCC(=O)O)cc2)c1C (stereo not drawn) [Compound #21, 3-(4-(3-Methyl-1-(4-methyl-5-(2-methyl-4-(trifluoromethyl)phenyl)-1H-indazol-1-yl)butyl)benzamido)propanoic acid]
65 nM	Cc1cc(C(F)(F)F)ccc1-c1ccc2c(cnn2C(CC(C)C)c2ccc(C(=O)NCCC(=O)O)nc2)c1C (stereo not drawn) [Compound #258, 3-(5-(3-Methyl-1-(4-methyl-5-(2-methyl-4-(trifluoromethyl)phenyl)-1H-indazol-1-yl)butyl)picolinamido)propanoic acid]
190 nM	Cc1cc2c(cnn2C(CC(C)C)c2ccc(C(=O)NCCC(=O)O)cc2)cc1-c1cc2cc(F)ccc2s1 (stereo not drawn) [Compound #158, 3-[[4-[1-[5-(5-Fluorobenzothiophen-2-yl)-6-methyl-indazol-1-yl]-3-methyl-butyl]benzoyl]amino]propanoic acid]
1550 nM	Cc1cc2c(cnn2[C@H](CC(C)C)c2ccc(C(=O)NCCC(=O)O)cc2)cc1-c1ccc(C(F)(F)F)cc1 [Compound #229, 3-[[4-[(1R)-3-Methyl-1-[6-methyl-5-[4-(trifluoromethyl)phenyl]indazol-1-yl]butyl]benzoyl]amino]propanoic acid]
70 nM	CC(C)CC(c1ccc(C(=O)NCCC(=O)O)nc1)n1cc2cc(-c3ccc(C(F)(F)F)cc3Cl)c(Cl)cc2n1 (stereo not drawn) [Compound #33, 3-[[5-[1-[6-Chloro-5-[2-chloro-4-(trifluoromethyl)phenyl]indazol-2-yl]-3-methyl-butyl]pyridine-2-carbonyl]amino]propanoic acid]
17 nM	CCOc1c(-c2ccc(C(F)(F)F)cc2C)ccc2nn(C(CC(C)C)c3ccc(C(=O)NCCC(=O)O)nc3)cc12 (stereo not drawn) [Compound #207, 3-(5-(1-(4-Ethoxy-5-(2-methyl-4-(trifluoromethyl)phenyl)-2H-indazol-2-yl)-3-methylbutyl)picolinamido)propanoic acid]
52 nM	Cc1cc2nn(C(CC(C)C)c3ccc(C(=O)NCCC(=O)O)cc3)cc2cc1-c1ccc(C(F)(F)F)cc1Cl (stereo not drawn) [Compound #95, 3-[[4-[1-[5-[2-Chloro-4-(trifluoromethyl)phenyl]-6-methyl-indazol-2-yl]-3-methyl-butyl]benzoyl]amino]propanoic acid]
37 nM	COc1c(-c2ccc(Cl)cc2C)ccc2nn(C(CC(C)C)c3ccc(C(=O)NCCC(=O)O)cc3)cc12 (stereo not drawn) [Compound #64, 3-(4-(1-(5-(4-Chloro-2-methylphenyl)-4-methoxy-2H-indazol-2-yl)-3-methylbutyl)benzamido)propanoic acid]
92 nM	CC(C)CC(c1ccc(C(=O)NCCC(=O)O)nc1)n1cc2cc(-c3cc4ccccc4s3)ccc2n1 (stereo not drawn) [compound 96]
700 nM	CC(C)CC(c1ccc(C(=O)NCCC(=O)O)nc1)n1cc2cc(-c3ccc(C(C)(C)C)cc3)ccc2n1 (stereo not drawn) [Compound #2]
14 nM and 44 nM	Cc1c(-c2ccc(C(F)(F)F)cc2Cl)ccc2nn(C(CC(C)C)c3ccc(C(=O)NCCC(=O)O)cc3)cc12 (stereo not drawn) [Compound #18, 3-(4-(1-(5-(2-Chloro-4-(trifluoromethyl)phenyl)-4-methyl-2H-indazol-2-yl)-3-methylbutyl)benzamido)propanoic acid]
28 nM	Cc1cc(C(F)(F)F)ccc1-c1ccc2nn(C(CC(C)C)c3ccc(C(=O)NCCC(=O)O)cc3)cc2c1C (stereo not drawn) [Compound #63, 3-(4-(3-Methyl-1-(4-methyl-5-(2-methyl-4-(trifluoromethyl)phenyl)-2H-indazol-2-yl)butyl)benzamido)propanoic acid]
30 nM	COc1c(-c2ccc(C(F)(F)F)cc2Cl)ccc2c1cnn2[C@@H](CC(C)C)c1ccc(C(=O)NCCC(=O)O)cc1 [Compound #201, 3-[[4-[(1S)-1-[5-[2-Chloro-4-(trifluoromethyl)phenyl]-4-methoxy-indazol-1-yl]-3-methyl-butyl]benzoyl]amino]propanoic acid]
22 nM	COc1c(-c2ccc(C(F)(F)F)cc2Cl)ccc2nn(C(CC(C)C)c3ccc(C(=O)NCCC(=O)O)nc3)cc12 (stereo not drawn) [Compound #178, 3-(5-(1-(5-(2-Chloro-4-(trifluoromethyl)phenyl)-4-methoxy-2H-indazol-2-yl)-3-methylbutyl)picolinamido)propanoic acid]
60 nM	Cc1c(-c2ccc(C(F)(F)F)cc2Cl)ccc2c1cnn2C(CC(C)C)c1ccc(C(=O)NCCC(=O)O)nc1 (stereo not drawn) [Compound #198, 3-(5-(1-(5-(2-Chloro-4-(trifluoromethyl)phenyl)-4-methyl-1H-indazol-1-yl)-3-methylbutyl)picolinamido)propanoic acid]
115 nM	Cc1c(-c2ccc(C(F)(F)F)cc2Cl)ccc2c1cnn2C(CC(C)C)c1ccc(C(=O)NCCC(=O)O)cc1 (stereo not drawn) [Compound #55, 3-(4-(1-(5-(2-Chloro-4-(trifluoromethyl)phenyl)-4-methyl-1H-indazol-1-yl)-3-methylbutyl)benzamido)propanoic acid]
40 nM	CC(C)CC(c1ccc(C(=O)NCCC(=O)O)cc1)n1cc2c(Cl)c(-c3ccc(C(F)(F)F)cc3)ccc2n1 (stereo not drawn) [Compound #147, 3-(4-(1-(4-Chloro-5-(4-(trifluoromethyl)phenyl)-2H-indazol-2-yl)-3-methylbutyl)benzamido)prop-anoic acid]
19 nM	Cc1cc(C(F)(F)F)ccc1-c1cc2cn(C(CC(C)C)c3ccc(C(=O)NCCC(=O)O)cc3)nc2cc1C (stereo not drawn) [Compound #54, 3-[[4-[3-Methyl-1-[6-methyl-5-[2-methyl-4-(trifluoromethyl)phenyl]indazol-2-yl]butyl]benzoyl]amino]propanoic acid]
